The target in the assay is T1, AR F876L (Homo sapiens, UniProt P10275, F877L).
T1 construct: expressed in transfected cells; host or cells: 293T AR F876L
T1 sequence (P10275 1-920 F877L): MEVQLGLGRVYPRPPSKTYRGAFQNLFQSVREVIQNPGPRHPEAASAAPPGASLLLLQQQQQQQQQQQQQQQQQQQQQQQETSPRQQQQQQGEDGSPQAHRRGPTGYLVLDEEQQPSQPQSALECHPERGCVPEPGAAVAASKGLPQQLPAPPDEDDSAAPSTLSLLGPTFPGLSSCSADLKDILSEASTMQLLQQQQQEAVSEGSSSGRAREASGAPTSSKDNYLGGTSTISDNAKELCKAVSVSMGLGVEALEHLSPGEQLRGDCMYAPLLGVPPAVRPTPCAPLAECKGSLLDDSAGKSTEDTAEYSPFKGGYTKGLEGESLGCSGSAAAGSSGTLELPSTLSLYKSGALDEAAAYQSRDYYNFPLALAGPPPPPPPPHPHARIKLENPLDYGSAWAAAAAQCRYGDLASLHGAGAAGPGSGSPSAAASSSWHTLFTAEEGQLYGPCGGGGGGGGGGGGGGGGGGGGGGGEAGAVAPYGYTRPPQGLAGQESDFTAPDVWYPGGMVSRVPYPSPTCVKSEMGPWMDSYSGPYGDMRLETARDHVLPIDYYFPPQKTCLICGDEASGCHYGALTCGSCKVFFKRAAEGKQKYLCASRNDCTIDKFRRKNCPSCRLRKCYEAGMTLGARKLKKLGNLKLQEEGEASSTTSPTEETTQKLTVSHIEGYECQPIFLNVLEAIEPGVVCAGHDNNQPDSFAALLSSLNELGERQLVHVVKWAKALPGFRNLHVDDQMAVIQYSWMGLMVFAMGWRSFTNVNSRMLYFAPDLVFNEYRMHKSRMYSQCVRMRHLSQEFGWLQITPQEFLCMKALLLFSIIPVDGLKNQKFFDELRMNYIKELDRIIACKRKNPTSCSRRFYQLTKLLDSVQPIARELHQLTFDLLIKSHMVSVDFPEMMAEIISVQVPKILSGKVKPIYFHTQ
Put plainly: In cell western of AR protein in 293T AR F876L cells. Type of assay: cell-based. Conditions: AR degradation, 48 hours. The procedure:
Experimental purpose: In this experiment, the effects of compounds WX015, WX016, and WX017 on the expression level of AR protein with point mutation in cell line 293T AR F876L were detected by in cell western assay to evaluate the degradation effect of compounds on proteins with AR F876L point mutation.
The cell line was cultured in a 37° C., 5% CO2 incubator. Regular passage, and cells in logarithmic growth phase were taken for plating.
2. Cell Plating: • 1) Cells were stained with trypan blue and viable cells were counted. • 2) The cell concentration was adjusted to an appropriate concentration with a density of 20000/well. • 3) 90 μL of cell suspension per well was added to a 96-well culture plate, and cell-free culture medium was added to the blank control well. • 4) The culture plate was cultured overnight in a 37° C., 5% CO2 incubator with 100% relative humidity.
3. […]
Relative quantification of the density intensity of immunoblot chemiluminescence bands was performed using Image Studio Ver 5.2 software.

Counter-ions that a name gives are not always drawn.

Broadly, the DC50 is the midpoint of the concentration-degradation curve. High values mean a less potent degrader, low ones a more potent degrader. By Dmax is commonly meant the greatest extent of degradation seen. A low value points to a partial loss of target. Turning to `N#Cc1ccc(O[C@H]2CC[C@H](NC(=O)c3ccc(N4CCC(CN5CCN(c6cccc7c6ccc6occ(C8CCC(=O)NC8=O)c67)CC5)CC4)nn3)CC2)cc1Cl` (some centres unmarked) [Hydrochloride of WX015], the DC50 came to 0.043 µM. The same molecule came in with a Dmax (HEK-293T) of 85%.

Source of the values: US20240190851A1, “FURAN FUSED RING-SUBSTITUTED GLUTARIMIDE COMPOUND” (MEDSHINE DISCOVERY INC., priority 2021, published 2024).
